# “Also recorded” adds a separate entry of the source.
# Assays:
# [1] = system: rat superior mesenteric arteries; conditions: cited from earlier work
# [2] = system: rat model of transient middle cerebral artery occlusion (t-MCAO); test: Neurological score (NSS), rat t-MCAO model, 7-day treatment (Example 2); format: in vivo; conditions: for Neurological score (NSS) vs vehicle: Day 1 and Day 8
# Protocol: The study was performed in cycles, each one containing at least nine rats. Test compounds were administrated 20 minutes before reperfusion and twice a day thereafter. On Day 1, stroke was induced by the t-MCAO procedure. Neurological score (NSS), was performed before surgery, 24 hours and 7 days after t-MCAO. At study termination brains were harvested, sliced into five 2 mm thick coronal sections and stained with TTC for infarct size measurement. The experimental design and timeline for the two parts of the study are presented below.
# The right Common Carotid artery (CCA) was exposed through a midline neck incision and carefully dissected free from surrounding nerves and fascia—from its bifurcation to the base of the skull. The Occipital artery branches of the External Carotid artery (ECA) were isolated, and these branches were dissected and coagulated. The ECA was dissected further distally and coagulated along with the terminal lingual and maxillary artery branches, just before their bifurcation. The Internal Carotid artery (ICA) was isolated and carefully separated from the adjacent Vagus nerve, and the Pterygopalatine artery was ligated close to its origin with a 5-0 nylon suture. […] The surgical wound was closed and the animals were returned to their cages to recover from anesthesia. One hour and half after occlusion rats were re-anesthetized and monofilament was withdrawn to allow reperfusion. The surgical wound was closed and rats were returned to their cages. Following surgery, animals were placed on a heating pad until their recovery from the anesthesia. All animals received subcutaneous Meloxicam at 2 mg/kg before and after surgery, daily during the next two days. They were observed frequently on the day of t-MCAO surgery and at least once daily thereafter.
# Treatment was start 20 minutes before reperfusion and then at the end of the same day, via IP administration of the test compounds. Treatment continued twice a day for six consecutive days thereafter.
# Neuroscore was graded on a scale of 0 to 18 (in which normal score is 0 and maximal deficit score is represented by 18).
# Nurr1 = Nurr1 (Homo sapiens, UniProt P43354); conditions: through physical interaction with its ligand binding domain (LBD); cited from earlier work
# [3] = system: mouse model of intracerebral haemorrhage (ICH); conditions: 40 mg/kg, cited from earlier work
# [4] = system: rodent models of subarachnoid hemorrhage; conditions: loading dose 10 μg/kg intraperitoneally, then infusion 200 ng/hr for 24 hours or one week; cited from earlier work
# [5] = system: collagenase-induced intracerebral hemorrhage; conditions: 10 μg/kg loading dose followed by 200 ng/h for up to 7 days; cited from earlier work
# [6] = system: experimental intracerebral hemorrhage in mice; conditions: 10 μg either before or at 2 h after hemorrhage; cited from earlier work
# [7] = system: patients with acute hemispheric infarction; conditions: oral administration; cited from earlier work
# [8] = system: rat thromboembolic model of stroke; conditions: continuous infusion 75 ng/h; 7 days post middle cerebral artery occlusion; cited from earlier work
# [9] = system: rodent models of brain ischemia and reperfusion injury; conditions: 1 mg/kg administered 10 min before reperfusion; cited from earlier work
# [10] = system: patients with large hemispheric infarctions; conditions: intravenous 0.13 mg bolus, 0.16 mg/h for 6 h, then 0.11 mg/h for 66 h; cited from earlier work
# [11] = system: rat model of stroke (middle cerebral artery occlusion); conditions: 10 μg/kg IP loading dose plus 200 ng/h subcutaneous infusion beginning 4.5 h or 10 h after onset of ischemia; cited from earlier work
# [12] = system: rat model of transient middle cerebral artery occlusion (t-MCAO); test: Brain infarct size (TTC staining, ImageJ), rat t-MCAO model, Example 2; format: in vivo; conditions: at termination; amodiaquine 0.5 mg/kg, potassium canrenoate 0.33 mg/kg, glibenclamide 1 μg/kg, exenatide 0.05 μg/kg; vehicle 38%
# Nurr1, sequence (P43354 whole entry, species assumed, the tested form may be a part): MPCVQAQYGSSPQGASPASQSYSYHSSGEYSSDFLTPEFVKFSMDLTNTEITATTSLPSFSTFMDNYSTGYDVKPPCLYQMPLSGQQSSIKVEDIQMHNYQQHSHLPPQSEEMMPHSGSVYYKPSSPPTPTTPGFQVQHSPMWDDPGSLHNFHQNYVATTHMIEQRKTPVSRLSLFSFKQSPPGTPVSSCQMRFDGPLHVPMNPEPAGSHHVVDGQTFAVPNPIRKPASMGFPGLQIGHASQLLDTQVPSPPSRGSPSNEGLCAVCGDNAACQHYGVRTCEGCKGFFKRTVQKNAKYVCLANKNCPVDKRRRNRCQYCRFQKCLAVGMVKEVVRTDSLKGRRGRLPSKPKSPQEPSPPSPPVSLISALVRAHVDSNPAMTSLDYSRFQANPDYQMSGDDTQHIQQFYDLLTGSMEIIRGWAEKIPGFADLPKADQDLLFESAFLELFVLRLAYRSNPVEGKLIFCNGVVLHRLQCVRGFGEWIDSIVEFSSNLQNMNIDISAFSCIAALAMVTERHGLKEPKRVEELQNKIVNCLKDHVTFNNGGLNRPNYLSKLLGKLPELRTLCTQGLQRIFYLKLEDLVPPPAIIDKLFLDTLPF
compound,measurement,setting,value
"CCN(CC)Cc1cc(Nc2ccnc3cc(Cl)ccc23)ccc1O [Amodiaquine, 4-[(7-chloroquinolin-4-yl)amino]-2[(diethylamino)methyl]-phenol]",Vasorelaxation,[1],induce vasorelaxation
same,Neurological score (NSS) vs vehicle,"[2]; amodiaquine 0.5 mg/kg (Group 5M), 20 min before reperfusion and twice a day",Statistically significant differences; also recorded: statistically significant NSS improvement
same,Neurological score (NSS) vs vehicle,"[2]; amodiaquine 7 mg/kg (Group 3M), 20 min before reperfusion and twice a day",Statistically significant differences; also recorded: statistically significant NSS improvement
same,Neurological score (NSS) vs vehicle,"[2]; amodiaquine 20 mg/kg (Group 2M), 20 min before reperfusion and twice a day",Statistically significant differences; also recorded: statistically significant NSS improvement
same,"Neurological score (NSS) vs vehicle, monotherapy at different doses",[2]; amodiaquine 0.5-20 mg/kg,improved significantly and dose dependently the neurological score
same,Transcriptional function of Nurr1,Nurr1,stimulate the transcriptional function of Nurr1
same,Perihematomal activation of microglia/macrophages and astrocytes,[3]; i.p. daily from 3 h after ICH induction,diminished perihematomal activation of microglia/macrophages and astrocytes
same,"ICH-induced mRNA expression of IL-1β, CCL2 and CXCL2",[3]; i.p. daily,"suppressed ICH-induced mRNA expression of IL-1β, CCL2 and CXCL2"
same,Motor dysfunction,[3]; i.p. daily,ameliorated motor dysfunction
"COc1ccc(Cl)cc1C(=O)NCCc1ccc(S(=O)(=O)NC(=O)NC2CCCCC2)cc1 [Glibenclamide, 5-chloro-N-[2-[4-(cyclohexylcarbamoyl-sulfamoyl)phenyl]ethyl]-2-methoxybenzamide]",Efficacy in subarachnoid hemorrhage,[4],effective
same,Efficacy in collagenase intracerebral hemorrhage,[5],not effective
same,"Cerebral edema, BBB disruption and neurological deficit",[6],"alleviate cerebral edema, disrupted BBB, and neurological deficit"
same,6-month functional outcome,[7],did not substantially improve 6-month functional outcome
same,Safety of treatment,[7],safe
same,"Reduction of cerebral edema, infarct volume and mortality",[8],50%
same,Efficacy in brain ischemia and reperfusion injury,[9],effective
same,"Brain swelling (midline shift), MMP-9, functional outcomes and mortality",[10],promising findings
same,"Hemispheric swelling, mortality and Garcia scores",[11],significantly reduced hemispheric swelling at 24 h and 48-h mortality and improved Garcia scores at 48 h
"C[C@]12CCC(=O)C=C1C=C[C@@H]1[C@@H]2CC[C@@]2(C)[C@H]1CC[C@@]2(O)CCC(=O)[O-].[K+] [Potassium canrenoate, potassium 3-[(8R,9S,10R,13S,14S,17R)-17-hydroxy-10,13-dimethyl-3-oxo-2,8,9,11,12,14,15,16-octahydro-1H-cyclopenta[a]phenanthren-17-yl]propanoate]","Neurological score (NSS) vs vehicle, Part II","[2]; Day 1, amodiaquine 0.5 mg/kg, potassium canrenoate 0.33 mg/kg, glibenclamide 1 μg/kg, exenatide 0.05 μg/kg, 20 min before reperfusion and twice a day",Statistically significant differences
same,"Brain infarct size vs vehicle, Part II",[12],Statistically significant differences in infarct size; also recorded: Less prominent decrease in infarct volume
CCN(CC)CCCC(C)Nc1ccnc2cc(Cl)ccc12 (stereo not drawn) [chloroquine],Transcriptional function of Nurr1,Nurr1,stimulate the transcriptional function of Nurr1

# From patent US20240366729A1, “COMBINATION OF A NURR1 AGONIST WITH AT LEAST ONE OF AN ALDOSTERONE ANTAGONIST, AN INSULIN MODULATOR AND A SULFONYLUREA” (GENESIS PHARMA SA, priority 2021, published 2024)
